According to ChEMBL document CHEMBL5126510, “UCH-L3 structure and function: Insights about a promising drug target” (Eur J Med Chem, 2022):

Columns and labels:
[1] = biological target: T1, Ubiquitin carboxyl-terminal hydrolase isozyme L3 (Homo sapiens, UniProt P15374); assay: Inhibition of UCHL3 (unknown origin) incubated for 20 mins by fluorescence assay
T1 sequence (P15374 whole entry): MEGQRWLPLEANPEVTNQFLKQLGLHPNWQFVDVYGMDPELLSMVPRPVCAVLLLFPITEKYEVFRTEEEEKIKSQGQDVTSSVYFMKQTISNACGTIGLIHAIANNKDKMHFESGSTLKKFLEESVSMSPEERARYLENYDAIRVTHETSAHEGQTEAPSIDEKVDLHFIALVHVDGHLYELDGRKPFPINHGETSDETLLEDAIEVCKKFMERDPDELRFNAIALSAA

[2] = biological target: T2, Ubiquitin carboxyl-terminal hydrolase isozyme L3 (Homo sapiens) (UniProt P15374); assay: Inhibition of UCHL3 (unknown origin) using Ub-AMC as substrate at 0.1 uM preincubated for 60 mins followed by substrate addition by fluorescence assay relative to control
T2 sequence (whole entry): T1 sequence (P15374 whole entry)

[3] = biological target: T3, Ubiquitin carboxyl-terminal hydrolase isozyme L1 (Homo sapiens, UniProt P09936); assay: Inhibition of UCHL1 (unknown origin) using Ub-Rho as substrate preincubated for 30 mins followed by substrate addition
T3 sequence (P09936 whole entry): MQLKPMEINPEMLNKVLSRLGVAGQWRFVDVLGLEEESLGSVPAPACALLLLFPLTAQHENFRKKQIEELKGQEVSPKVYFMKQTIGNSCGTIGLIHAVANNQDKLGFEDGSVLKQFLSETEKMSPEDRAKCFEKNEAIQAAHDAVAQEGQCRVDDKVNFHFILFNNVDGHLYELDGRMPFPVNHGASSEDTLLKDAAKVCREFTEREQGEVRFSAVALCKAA

[4] = biological target: T1, Ubiquitin carboxyl-terminal hydrolase isozyme L3; assay: Inhibition of recombinant human UCHL3 expressed in baculovirus infected Sf9 cells using ubiquitin-AMC as substrate preincubated for 30 mins followed by substrate addition by fluorescence spectrophotometric assay
[5] = biological target: T3, Ubiquitin carboxyl-terminal hydrolase isozyme L1; assay: Inhibition of UCHL1 (unknown origin) using Ub-Rho-morpholine as substrate preincubated for 30 mins followed by substrate addition by fluorescence based assay
[6] = biological target: T1, Ubiquitin carboxyl-terminal hydrolase isozyme L3; assay: Inhibition of UCHL3 (unknown origin)
[7] = biological target: T1, Ubiquitin carboxyl-terminal hydrolase isozyme L3; assay: Inhibition of UCHL3 (unknown origin) using ubiquitin-AMC as substrate by fluorescence assay
[8] = biological target: T1, Ubiquitin carboxyl-terminal hydrolase isozyme L3; assay: Inhibition of UCHL3 (unknown origin) using Ub-AMC as substrate preincubated for 30 mins followed by substrate addition by fluorescence assay
[9] = biological target: T1, Ubiquitin carboxyl-terminal hydrolase isozyme L3; assay: Inhibition of UCHL3 (unknown origin) assessed as reduction in RAD51 deubiquitination incubated for 4 hrs

COC(=O)c1cc(-c2ccc(OC)c(OC)c2O)c(N)c(-c2ccc3c(n2)C(=O)C(N)=C(OC)C3=O)n1
IC50 [1]: 5 µM

O=C1C(Cc2ccc([N+](=O)[O-])cc2)CNCC1Cc1ccc([N+](=O)[O-])cc1 (stereo not given)
inhibition [2]: 60%

N#CN1CCCC1C(=O)n1ccc2c(-c3cn[nH]c3C(F)(F)F)cccc21 (stereo not given)
IC50 [3]: 0.67 µM

CCCCc1ccc(-c2nnc(C)n2-c2ccc(C(C)C)cc2)cc1
IC50 [4]: 47 µM

N#CN1CCC(C(=O)Nc2ncc(N3CCOCC3)s2)C1 (stereo not given)
IC50 [5]: 0.23 µM

CC(=O)O/N=C1/C(=O)N(Cc2cc(Cl)ccc2Cl)c2ccc(Cl)cc21
IC50 [6]: 25 µM

O=C1c2ccccc2C(=O)c2oc(-c3ccc(F)cc3)nc21
IC50 [7]: 2.16 µM

CCCCC[C@H](O)/C=C/[C@H]1C(=O)C=C[C@@H]1C/C=C\CCCC(=O)O
IC50 [8]: 10 µM

C#CCCn1cc(-c2cccc3c2ccn3C(=O)C2CCCN2C#N)c(C(F)(F)F)n1 (stereo not given)
IC50 [3]: 6.4 µM

CCCCCCCCCCCCCCCCCCOP(=O)([O-])OC1CC[N+](C)(C)CC1 [PERIFOSINE]
IC50 [9]: 0.05 µM
